The values below come from ChEMBL document CHEMBL3045029, “Synthesis and antimicrobial activities of some isoxazolyl thiazolyl pyrazoles” (2012).

What all share (type): functional
One test has as its system Staphylococcus aureus. Briefly: Antibacterial activity against Staphylococcus aureus MTCC 7443 after 24 hr by serial dilution method.
For a further test, the system named is Aspergillus niger. The experiment in a line: Antifungal activity against Aspergillus niger MTCC 282 after 120 hr by serial dilution method.
For a further test, the system named is Bacillus subtilis. Briefly: Antibacterial activity against Bacillus subtilis MTCC 441 after 24 hr by serial dilution method.
A further test deals with Candida albicans. The experiment in a line: Antifungal activity against Candida albicans MTCC 183 after 48 hr by serial dilution method.
The next test deals with Escherichia coli. Briefly: Antibacterial activity against Escherichia coli MTCC 42 after 24 hr by serial dilution method.

Take `C/C(=N\Nc1nc(-c2ccccc2)cs1)c1c(O)cc(C)oc1=O`: the “-logMIC” value with Staphylococcus aureus was 1.737; with Aspergillus niger, 1.435; with Bacillus subtilis it was 1.435; in the test with Candida albicans, 1.435; in the test on Escherichia coli, 1.435.
Regarding `CC(=O)CC(=O)c1c(C)[nH]n(-c2nc(-c3ccccc3)cs2)c1=O`, the “-logMIC” value in the test on Staphylococcus aureus, with Aspergillus niger, in the test on Bacillus subtilis, in the test on Candida albicans and in the test with Escherichia coli was 1.435 in each case.
For `COc1ccc(-c2csc(N/N=C(\C)c3c(O)cc(C)oc3=O)n2)cc1`, the “-logMIC” value in the test with Staphylococcus aureus was 1.472; in the test with Aspergillus niger it was 1.472; with Bacillus subtilis, 1.171; in the test with Candida albicans, 1.171; in the test with Escherichia coli, 1.472.
Take `Cc1cc(-c2c(C)[nH]n(-c3nc(-c4ccc(Cl)cc4)cs3)c2=O)on1`: the “-logMIC” value in the test on Staphylococcus aureus is on record as 2.077; with Aspergillus niger it was 1.474; with Bacillus subtilis it was 1.775; in the test on Candida albicans, 1.477; in the test on Escherichia coli, 1.775.
On to `CCn1cc(C(=O)O)c(=O)c2cc(F)c(N3CCNCC3)cc21` [NORFLOXACIN], for which the “-logMIC” value in the test with Staphylococcus aureus, with Bacillus subtilis and in the test with Escherichia coli was 2.698 in each case.
For `COc1ccc(-c2csc(-n3[nH]c(C)c(-c4cc(C)no4)c3=O)n2)cc1`, the “-logMIC” value with Staphylococcus aureus came to 1.771; in the test on Aspergillus niger, 1.771; in the test with Bacillus subtilis, 1.771; in the test with Candida albicans, 1.47; in the test with Escherichia coli, 1.47.
In the case of `OC(Cn1cncn1)(Cn1cncn1)c1ccc(F)cc1F` [FLUCONAZOLE], the “-logMIC” value in the test on Aspergillus niger and in the test with Candida albicans was 3 throughout.
In the case of `Cc1ccc(-c2csc(-n3[nH]c(C)c(-c4cc(C)no4)c3=O)n2)cc1`, the “-logMIC” value with Staphylococcus aureus came out at 1.75; in the test on Aspergillus niger, 1.75; in the test with Bacillus subtilis, 1.75; in the test on Candida albicans, 1.449; with Escherichia coli, 1.75.
For `Cc1cc(-c2c(C)[nH]n(-c3nc(-c4ccccc4)cs3)c2=O)on1`, the “-logMIC” value is on record as 1.733 in the test with Staphylococcus aureus; 1.432 in the test with Aspergillus niger; 1.733 in the test with Bacillus subtilis; 1.432 in the test on Candida albicans; 1.733 in the test with Escherichia coli.
Take `C/C(=N\Nc1nc(-c2ccc(Cl)cc2)cs1)c1c(O)cc(C)oc1=O`: the “-logMIC” value with Staphylococcus aureus, in the test with Aspergillus niger, in the test on Bacillus subtilis, in the test with Candida albicans and in the test on Escherichia coli was 1.478 in each case.
Regarding `C/C(=N\Nc1nc(-c2ccc(C)cc2)cs1)c1c(O)cc(C)oc1=O`, the “-logMIC” value in the test with Staphylococcus aureus amounted to 1.453; in the test with Aspergillus niger, 1.435; in the test with Bacillus subtilis it was 1.453; in the test with Candida albicans, 1.152; in the test with Escherichia coli, 1.453.
